# Numbered stars: 1 amine (or outer) side, 2 acyl side, 3 side chain; on linkers, the order of the positions; unused ones are H or OH. Bridge positions count the residues as written; N and C are the ends. Square brackets hold non-standard residues; d marks the D form. Peptide text beside a SMILES is read from it. * marks the point of attachment. Phe(3-CF3) = N[C@@H](Cc1cccc(C(F)(F)F)c1)C(=O)O; Ala(morpholin-4-yl) = N[C@@H](CN1CCOCC1)C(=O)O; Phe(4-COOH) = N[C@@H](Cc1ccc(C(=O)O)cc1)C(=O)O; Bip = N[C@@H](Cc1ccc(-c2ccccc2)cc1)C(=O)O; NH(CH2)14COOH = O=C(O)CCCCCCCCCCCCCCN*; γGlu = O=C(O)[C@H](CCC(=O)[*:2])N[*:1]; Abu(3S-NH2) = C[C@H](N)[C@H](N)C(=O)O; βAsp = O=C(O)[C@H](CC(=O)[*:2])N[*:1]; NH(CH2)12COOH = O=C(O)CCCCCCCCCCCCN*; Val(3-OH) = CC(C)(O)[C@H](N)C(=O)O; Cha = N[C@@H](CC1CCCCC1)C(=O)O; PEG4 = NCCOCCOCCOCCOCCC(=O)O; Carboxymethyl = O=C(O)C*; Orn = NCCC[C@H](N)C(=O)O; Dab = NCC[C@H](N)C(=O)O; Nva = CCC[C@H](N)C(=O)O; AEEA = NCCOCCOCC(=O)O
# Target: T1, PD-1/PD-L1 interaction (PE-labeled human PD-L1-Ig binding to Jurkat cell line over-expressing human PD-1) (Homo sapiens, UniProt Q15116)
# T1 construct: expressed in transfected cells; host or cells: Jurkat
# T1 sequence (Q15116 25-288): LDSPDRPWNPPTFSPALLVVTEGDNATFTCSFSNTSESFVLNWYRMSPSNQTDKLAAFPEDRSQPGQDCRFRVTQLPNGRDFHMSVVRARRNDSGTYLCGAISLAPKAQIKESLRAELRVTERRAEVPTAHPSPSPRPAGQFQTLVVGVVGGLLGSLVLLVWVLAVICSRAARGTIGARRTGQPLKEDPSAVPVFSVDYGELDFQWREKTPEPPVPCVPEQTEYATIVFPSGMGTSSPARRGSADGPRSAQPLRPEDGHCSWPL
# Assay: Jurkat-PD-1 Cell Binding High-Content Screening Assay (CBA)
# Format: cell-based
# Details: Jurkat cell line over-expressing human PD-1; PE-labeled PD-L1-Ig 20 nM final; read-out: Jurkat hPD1-PDL1 IC50
# How it was run: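 Jurkat cells over-expressing human PD-1 (8×10^3 per well, DMEM/10% FCS) preincubated with compound 2 h at 37° C, then PE-labeled human PD-L1-Ig (20 nM final) added for 1 h. Cells fixed with paraformaldehyde, Hoechst-stained, and bound fluorescence quantified by high-content imaging.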
row,Compound,IC50
1,CC(C)C[C@H]1NC(=O)[C@H](CCCN)NC(=O)[C@H](Cc2ccc(C(=O)O)cc2)NC(=O)[C@H](Cc2ccc(-c3ccccc3)cc2)NC(=O)[C@H](Cc2ccc(C(=O)O)cc2)NC(=O)[C@H](Cc2cccc(C(F)(F)F)c2)NC(=O)[C@H](CC(=O)O)NC(=O)[C@H](Cc2ccc(OCC(=O)O)cc2)NC(=O)[C@H](C)NC(=O)CSC[C@@H](C(=O)N[C@@H](CCN)C(=O)NCCOCCOCC(=O)N[C@@H](CC(=O)NCCOCCOCC(=O)NCCCCCCCCCCCCC(=O)O)C(=O)O)NC(=O)[C@H](CO)NC(=O)[C@H](C(C)(C)O)NC(=O)[C@H](CC2CCCCC2)NC(=O)[C@H](CCN)NC1=O [Compound 2935] ({CH2CO}-AY(Carboxymethyl)D[Phe(3-CF3)][Phe(4-COOH)][Bip][Phe(4-COOH)][Orn][dL][Dab][Cha][Val(3-OH)]SC[Dab][AEEA][βAsp][AEEA]-{NH(CH2)12COOH}; thioether N-14),42.4 nM
2,CC(C)C[C@@H]1NC(=O)CSC[C@@H](C(=O)N[C@@H](CCN)C(=O)NCCOCCOCC(=O)N[C@@H](CC(=O)NCCOCCOCC(=O)NCCCCCCCCCCCCC(=O)O)C(=O)O)NC(=O)[C@H](CO)NC(=O)[C@H](C(C)(C)O)NC(=O)[C@H](CC2CCCCC2)NC(=O)[C@H](CCN)NC(=O)[C@@H](CC(C)C)NC(=O)[C@H](CCCN)NC(=O)[C@H](Cc2ccc(C(=O)O)cc2)NC(=O)[C@H](Cc2ccc(-c3ccccc3)cc2)NC(=O)[C@H](Cc2ccc(C(=O)O)cc2)NC(=O)[C@H](Cc2cccc(C(F)(F)F)c2)NC(=O)[C@H](CC(=O)O)NC(=O)[C@H](Cc2ccc(OCC(=O)O)cc2)NC1=O [Compound 2937] ({CH2CO}-LY(Carboxymethyl)D[Phe(3-CF3)][Phe(4-COOH)][Bip][Phe(4-COOH)][Orn][dL][Dab][Cha][Val(3-OH)]SC[Dab][AEEA][βAsp][AEEA]-{NH(CH2)12COOH}; thioether N-14),11.7 nM
3,COC[C@@H]1NC(=O)CSC[C@@H](C(=O)N[C@@H](CCN)C(=O)NCCOCCOCC(=O)N[C@@H](CCC(=O)NCCOCCOCC(=O)NCCCCCCCCCCCCC(=O)O)C(=O)O)NC(=O)[C@H](CO)NC(=O)[C@H](C(C)(C)O)NC(=O)[C@H](CC2CCCCC2)NC(=O)[C@H](CCN)NC(=O)[C@@H](CC(C)C)NC(=O)[C@H](CCCN)NC(=O)[C@H](Cc2ccc(C(=O)O)cc2)NC(=O)[C@H](Cc2ccc(-c3ccccc3)cc2)NC(=O)[C@H](Cc2ccc(C(=O)O)cc2)NC(=O)[C@H](Cc2cccc(C(F)(F)F)c2)NC(=O)[C@H](CC(=O)O)NC(=O)[C@H](Cc2ccc(OCC(=O)O)cc2)NC1=O [Compound 2938] ({CH2CO}-S(Me)Y(Carboxymethyl)D[Phe(3-CF3)][Phe(4-COOH)][Bip][Phe(4-COOH)][Orn][dL][Dab][Cha][Val(3-OH)]SC[Dab][AEEA][γGlu][AEEA]-{NH(CH2)12COOH}; thioether N-14),26.8 nM
4,CC(C)C[C@H]1NC(=O)[C@H](CCCN)NC(=O)[C@H](Cc2ccc(C(=O)O)cc2)NC(=O)[C@H](Cc2ccc(-c3ccccc3)cc2)NC(=O)[C@H](Cc2ccc(C(=O)O)cc2)NC(=O)[C@H](Cc2cccc(C(F)(F)F)c2)NC(=O)[C@H](CC(=O)O)NC(=O)[C@H](Cc2ccc(OCC(=O)O)cc2)NC(=O)[C@H](CN2CCOCC2)NC(=O)CSC[C@@H](C(=O)N[C@@H](CCN)C(=O)NCCOCCOCC(=O)N[C@@H](CCC(=O)NCCOCCOCC(=O)NCCCCCCCCCCCCC(=O)O)C(=O)O)NC(=O)[C@H](CO)NC(=O)[C@H](C(C)(C)O)NC(=O)[C@H](CC2CCCCC2)NC(=O)[C@H](CCN)NC1=O [Compound 2940] ({CH2CO}-[Ala(morpholin-4-yl)]Y(Carboxymethyl)D[Phe(3-CF3)][Phe(4-COOH)][Bip][Phe(4-COOH)][Orn][dL][Dab][Cha][Val(3-OH)]SC[Dab][AEEA][γGlu][AEEA]-{NH(CH2)12COOH}; thioether N-14),14.3 nM
5,CC(C)C[C@H]1NC(=O)[C@H](CCCN)NC(=O)[C@H](Cc2ccc(C(=O)O)cc2)NC(=O)[C@H](Cc2ccc(-c3ccccc3)cc2)NC(=O)[C@H](Cc2ccc(C(=O)O)cc2)NC(=O)[C@H](Cc2cccc(C(F)(F)F)c2)NC(=O)[C@H](CC(=O)O)NC(=O)[C@H](Cc2ccc(OCC(=O)O)cc2)NC(=O)[C@H](CN2CCOCC2)NC(=O)CSC[C@@H](C(=O)N[C@@H](CCN)C(=O)NCCOCCOCC(=O)N[C@@H](CC(=O)NCCOCCOCC(=O)NCCCCCCCCCCCCC(=O)O)C(=O)O)NC(=O)[C@H](CO)NC(=O)[C@H](C(C)(C)O)NC(=O)[C@H](CC2CCCCC2)NC(=O)[C@H](CCN)NC1=O [Compound 2941] ({CH2CO}-[Ala(morpholin-4-yl)]Y(Carboxymethyl)D[Phe(3-CF3)][Phe(4-COOH)][Bip][Phe(4-COOH)][Orn][dL][Dab][Cha][Val(3-OH)]SC[Dab][AEEA][βAsp][AEEA]-{NH(CH2)12COOH}; thioether N-14),27.8 nM
6,CC(C)C[C@H]1NC(=O)[C@H](CCCN)NC(=O)[C@H](Cc2ccc(C(=O)O)cc2)NC(=O)[C@H](Cc2ccc(-c3ccccc3)cc2)NC(=O)[C@H](Cc2ccc(C(=O)O)cc2)NC(=O)[C@H](Cc2cccc(C(F)(F)F)c2)NC(=O)[C@H](CC(=O)O)NC(=O)[C@H](Cc2ccc(OCC(=O)O)cc2)NC(=O)[C@H](CCN)NC(=O)CSC[C@@H](C(=O)N[C@@H](CCN)C(=O)NCCOCCOCC(=O)N[C@@H](CC(=O)NCCOCCOCC(=O)NCCCCCCCCCCCCC(=O)O)C(=O)O)NC(=O)[C@H](CO)NC(=O)[C@H](C(C)(C)O)NC(=O)[C@H](CC2CCCCC2)NC(=O)[C@H](CCN)NC1=O [Compound 2943] ({CH2CO}-[Dab]Y(Carboxymethyl)D[Phe(3-CF3)][Phe(4-COOH)][Bip][Phe(4-COOH)][Orn][dL][Dab][Cha][Val(3-OH)]SC[Dab][AEEA][βAsp][AEEA]-{NH(CH2)12COOH}; thioether N-14),75.8 nM
7,CC(C)C[C@H]1NC(=O)[C@H](CCCN)NC(=O)[C@H](Cc2ccc(C(=O)O)cc2)NC(=O)[C@H](Cc2ccc(-c3ccccc3)cc2)NC(=O)[C@H](Cc2ccc(C(=O)O)cc2)NC(=O)[C@H](Cc2cccc(C(F)(F)F)c2)NC(=O)[C@H](CC(=O)O)NC(=O)[C@H](Cc2ccc(OCC(=O)O)cc2)NC(=O)[C@H]([C@H](C)N)NC(=O)CSC[C@@H](C(=O)N[C@@H](CCN)C(=O)NCCCCCCCCCCCCC(=O)O)NC(=O)[C@H](CO)NC(=O)[C@H](C(C)(C)O)NC(=O)[C@H](CC2CCCCC2)NC(=O)[C@H](CCN)NC1=O [Compound 2944] ({CH2CO}-[Abu(3S-NH2)]Y(Carboxymethyl)D[Phe(3-CF3)][Phe(4-COOH)][Bip][Phe(4-COOH)][Orn][dL][Dab][Cha][Val(3-OH)]SC[Dab]-{NH(CH2)12COOH}; thioether N-14),55 nM
8,CC(C)C[C@H]1NC(=O)[C@H](CCCN)NC(=O)[C@H](Cc2ccc(C(=O)O)cc2)NC(=O)[C@H](Cc2ccc(-c3ccccc3)cc2)NC(=O)[C@H](Cc2ccc(C(=O)O)cc2)NC(=O)[C@H](Cc2cccc(C(F)(F)F)c2)NC(=O)[C@H](CC(=O)O)NC(=O)[C@H](Cc2ccc(OCC(=O)O)cc2)NC(=O)[C@H](CN2CCOCC2)NC(=O)CSC[C@@H](C(=O)N[C@@H](CCN)C(=O)NCCOCCOCCOCCOCCC(=O)NCCCCCCCCCCCCC(=O)O)NC(=O)[C@H](CC(=O)O)NC(=O)[C@H](C(C)(C)O)NC(=O)[C@H](CC2CCCCC2)NC(=O)[C@H](CCN)NC1=O [Compound 2947] ({CH2CO}-[Ala(morpholin-4-yl)]Y(Carboxymethyl)D[Phe(3-CF3)][Phe(4-COOH)][Bip][Phe(4-COOH)][Orn][dL][Dab][Cha][Val(3-OH)]DC[Dab][PEG4]-{NH(CH2)12COOH}; thioether N-14),64.4 nM
9,CC(C)C[C@H]1NC(=O)[C@H](CCCN)NC(=O)[C@H](Cc2ccc(C(=O)O)cc2)NC(=O)[C@H](Cc2ccc(-c3ccccc3)cc2)NC(=O)[C@H](Cc2ccc(C(=O)O)cc2)NC(=O)[C@H](Cc2cccc(C(F)(F)F)c2)NC(=O)[C@H](CC(=O)O)NC(=O)[C@H](Cc2ccc(OCC(=O)O)cc2)NC(=O)[C@H](CN2CCOCC2)NC(=O)CSC[C@@H](C(=O)N[C@@H](CCN)C(=O)NCCOCCOCCOCCOCCC(=O)NCCCCCCCCCCCCCCC(=O)O)NC(=O)[C@H](CC(=O)O)NC(=O)[C@H](C(C)(C)O)NC(=O)[C@H](CC2CCCCC2)NC(=O)[C@H](CCN)NC1=O [Compound 2948] ({CH2CO}-[Ala(morpholin-4-yl)]Y(Carboxymethyl)D[Phe(3-CF3)][Phe(4-COOH)][Bip][Phe(4-COOH)][Orn][dL][Dab][Cha][Val(3-OH)]DC[Dab][PEG4]-{NH(CH2)14COOH}; thioether N-14),352 nM
10,CC(C)C[C@H]1NC(=O)[C@H](CCCN)NC(=O)[C@H](Cc2ccc(C(=O)O)cc2)NC(=O)[C@H](Cc2ccc(-c3ccccc3)cc2)NC(=O)[C@H](Cc2ccc(C(=O)O)cc2)NC(=O)[C@H](Cc2cccc(C(F)(F)F)c2)NC(=O)[C@H](CC(=O)O)NC(=O)[C@H](Cc2ccc(OCC(=O)O)cc2)NC(=O)[C@H](CN2CCOCC2)NC(=O)CSC[C@@H](C(=O)N[C@@H](CCN)C(=O)NCCCCCCCCCCCCCCC(=O)O)NC(=O)[C@H](CC(=O)O)NC(=O)[C@H](C(C)(C)O)NC(=O)[C@H](CC2CCCCC2)NC(=O)[C@H](CCN)NC1=O [Compound 2949] ({CH2CO}-[Ala(morpholin-4-yl)]Y(Carboxymethyl)D[Phe(3-CF3)][Phe(4-COOH)][Bip][Phe(4-COOH)][Orn][dL][Dab][Cha][Val(3-OH)]DC[Dab]-{NH(CH2)14COOH}; thioether N-14),305 nM
11,CCC[C@@H]1NC(=O)CSC[C@@H](C(=O)N[C@@H](CCN)C(=O)NCCOCCOCCOCCOCCC(=O)NCCCCCCCCCCCCC(=O)O)NC(=O)[C@H](Cc2c[nH]cn2)NC(=O)[C@H](C(C)(C)O)NC(=O)[C@H](CC2CCCCC2)NC(=O)[C@H](CCN)NC(=O)[C@@H](CC(C)C)NC(=O)[C@H](CCCN)NC(=O)[C@H](Cc2ccc(C(=O)O)cc2)NC(=O)[C@H](Cc2ccc(-c3ccccc3)cc2)NC(=O)[C@H](Cc2ccc(C(=O)O)cc2)NC(=O)[C@H](Cc2cccc(C(F)(F)F)c2)NC(=O)[C@H](CC(=O)O)NC(=O)[C@H](Cc2ccc(OCC(=O)O)cc2)NC1=O [Compound 2950] ({CH2CO}-[Nva]Y(Carboxymethyl)D[Phe(3-CF3)][Phe(4-COOH)][Bip][Phe(4-COOH)][Orn][dL][Dab][Cha][Val(3-OH)]HC[Dab][PEG4]-{NH(CH2)12COOH}; thioether N-14),52.4 nM
